Activity calls are given as the source filed them. For most assays here, no stated cut-off is given here; in the data, actives have a measured Kd and inactives only a lower limit.
What was measured:
Wee1-like protein kinase = Wee1-like protein kinase (Homo sapiens, UniProt P30291)
Pyridoxal kinase = biological target: T1, Pyridoxal kinase (Homo sapiens, UniProt O00764)
T1 sequence (O00764 whole entry): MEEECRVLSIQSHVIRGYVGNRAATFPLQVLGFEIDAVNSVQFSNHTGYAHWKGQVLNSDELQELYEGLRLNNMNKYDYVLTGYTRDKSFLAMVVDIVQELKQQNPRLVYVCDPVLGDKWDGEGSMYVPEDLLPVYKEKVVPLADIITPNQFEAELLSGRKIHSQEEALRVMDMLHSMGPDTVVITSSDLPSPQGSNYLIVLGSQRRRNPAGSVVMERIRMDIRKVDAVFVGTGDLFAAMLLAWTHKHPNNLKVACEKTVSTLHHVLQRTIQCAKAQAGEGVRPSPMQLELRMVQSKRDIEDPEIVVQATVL

[1] = biological target: T2, ATP-dependent RNA helicase DDX1 (Homo sapiens, UniProt Q92499)
T2 sequence (Q92499 whole entry): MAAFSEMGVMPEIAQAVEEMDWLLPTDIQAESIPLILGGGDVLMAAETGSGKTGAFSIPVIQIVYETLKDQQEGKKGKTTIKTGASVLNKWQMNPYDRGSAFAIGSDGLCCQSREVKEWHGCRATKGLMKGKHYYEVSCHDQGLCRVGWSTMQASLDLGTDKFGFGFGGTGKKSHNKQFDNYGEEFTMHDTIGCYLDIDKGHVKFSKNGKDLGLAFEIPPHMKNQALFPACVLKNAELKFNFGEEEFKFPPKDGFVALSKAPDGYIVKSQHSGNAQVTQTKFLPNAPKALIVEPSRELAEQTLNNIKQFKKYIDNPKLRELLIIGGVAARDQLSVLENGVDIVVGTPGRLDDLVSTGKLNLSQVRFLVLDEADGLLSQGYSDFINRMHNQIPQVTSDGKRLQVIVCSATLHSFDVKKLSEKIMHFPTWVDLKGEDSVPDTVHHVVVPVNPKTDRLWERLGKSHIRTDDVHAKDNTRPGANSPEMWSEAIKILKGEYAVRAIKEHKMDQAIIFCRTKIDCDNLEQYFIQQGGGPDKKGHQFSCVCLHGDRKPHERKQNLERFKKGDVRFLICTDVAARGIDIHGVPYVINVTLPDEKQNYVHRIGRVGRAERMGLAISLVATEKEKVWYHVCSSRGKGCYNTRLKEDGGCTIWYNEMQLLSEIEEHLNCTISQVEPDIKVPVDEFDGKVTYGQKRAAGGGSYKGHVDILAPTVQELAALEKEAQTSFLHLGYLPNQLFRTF

Ephrin type-A receptor 4 = Ephrin type-A receptor 4 (Homo sapiens, UniProt P54764)
Sequence of Ephrin type-A receptor 4 (P54764 whole entry): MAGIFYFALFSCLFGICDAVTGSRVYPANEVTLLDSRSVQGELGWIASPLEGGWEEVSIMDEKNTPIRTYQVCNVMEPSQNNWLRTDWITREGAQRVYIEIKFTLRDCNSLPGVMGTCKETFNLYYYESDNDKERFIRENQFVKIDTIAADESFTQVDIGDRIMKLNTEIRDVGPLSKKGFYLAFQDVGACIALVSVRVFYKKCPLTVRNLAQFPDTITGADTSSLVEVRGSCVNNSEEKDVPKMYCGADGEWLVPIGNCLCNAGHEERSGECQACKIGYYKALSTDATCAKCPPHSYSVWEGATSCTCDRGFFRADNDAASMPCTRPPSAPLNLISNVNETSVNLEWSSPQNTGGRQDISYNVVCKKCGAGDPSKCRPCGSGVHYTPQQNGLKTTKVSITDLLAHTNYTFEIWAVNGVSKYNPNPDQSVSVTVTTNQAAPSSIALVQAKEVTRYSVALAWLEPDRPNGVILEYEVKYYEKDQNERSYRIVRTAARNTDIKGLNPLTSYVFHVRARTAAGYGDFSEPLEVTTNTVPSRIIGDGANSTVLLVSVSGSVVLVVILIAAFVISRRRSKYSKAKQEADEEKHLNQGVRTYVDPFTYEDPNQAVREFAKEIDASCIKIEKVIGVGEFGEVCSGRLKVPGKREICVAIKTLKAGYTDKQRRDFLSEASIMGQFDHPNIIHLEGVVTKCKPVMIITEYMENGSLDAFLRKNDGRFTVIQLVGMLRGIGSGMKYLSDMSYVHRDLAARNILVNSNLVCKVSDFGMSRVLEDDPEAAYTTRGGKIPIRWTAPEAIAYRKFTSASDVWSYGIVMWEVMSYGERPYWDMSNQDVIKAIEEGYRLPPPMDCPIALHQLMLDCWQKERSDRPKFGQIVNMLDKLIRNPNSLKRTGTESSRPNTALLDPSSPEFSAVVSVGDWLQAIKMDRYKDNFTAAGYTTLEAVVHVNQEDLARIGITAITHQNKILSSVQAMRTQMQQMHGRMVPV

[2] = biological target: Cyclin-dependent kinase 7 (Homo sapiens, UniProt P50613)
Sequence of Cyclin-dependent kinase 7 (P50613 whole entry): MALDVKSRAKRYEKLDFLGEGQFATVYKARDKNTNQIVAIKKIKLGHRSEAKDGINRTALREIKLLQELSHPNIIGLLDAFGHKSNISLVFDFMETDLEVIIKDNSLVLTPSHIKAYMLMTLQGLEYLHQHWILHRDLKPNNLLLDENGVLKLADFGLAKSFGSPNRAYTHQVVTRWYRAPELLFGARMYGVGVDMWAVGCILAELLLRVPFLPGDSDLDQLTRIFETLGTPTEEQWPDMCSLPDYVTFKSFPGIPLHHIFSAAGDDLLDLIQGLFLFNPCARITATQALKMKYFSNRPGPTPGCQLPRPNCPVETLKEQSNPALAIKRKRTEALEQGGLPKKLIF

[3] = biological target: Serine/threonine-protein kinase 10 (Homo sapiens, UniProt O94804)
Sequence of Serine/threonine-protein kinase 10 (O94804 whole entry): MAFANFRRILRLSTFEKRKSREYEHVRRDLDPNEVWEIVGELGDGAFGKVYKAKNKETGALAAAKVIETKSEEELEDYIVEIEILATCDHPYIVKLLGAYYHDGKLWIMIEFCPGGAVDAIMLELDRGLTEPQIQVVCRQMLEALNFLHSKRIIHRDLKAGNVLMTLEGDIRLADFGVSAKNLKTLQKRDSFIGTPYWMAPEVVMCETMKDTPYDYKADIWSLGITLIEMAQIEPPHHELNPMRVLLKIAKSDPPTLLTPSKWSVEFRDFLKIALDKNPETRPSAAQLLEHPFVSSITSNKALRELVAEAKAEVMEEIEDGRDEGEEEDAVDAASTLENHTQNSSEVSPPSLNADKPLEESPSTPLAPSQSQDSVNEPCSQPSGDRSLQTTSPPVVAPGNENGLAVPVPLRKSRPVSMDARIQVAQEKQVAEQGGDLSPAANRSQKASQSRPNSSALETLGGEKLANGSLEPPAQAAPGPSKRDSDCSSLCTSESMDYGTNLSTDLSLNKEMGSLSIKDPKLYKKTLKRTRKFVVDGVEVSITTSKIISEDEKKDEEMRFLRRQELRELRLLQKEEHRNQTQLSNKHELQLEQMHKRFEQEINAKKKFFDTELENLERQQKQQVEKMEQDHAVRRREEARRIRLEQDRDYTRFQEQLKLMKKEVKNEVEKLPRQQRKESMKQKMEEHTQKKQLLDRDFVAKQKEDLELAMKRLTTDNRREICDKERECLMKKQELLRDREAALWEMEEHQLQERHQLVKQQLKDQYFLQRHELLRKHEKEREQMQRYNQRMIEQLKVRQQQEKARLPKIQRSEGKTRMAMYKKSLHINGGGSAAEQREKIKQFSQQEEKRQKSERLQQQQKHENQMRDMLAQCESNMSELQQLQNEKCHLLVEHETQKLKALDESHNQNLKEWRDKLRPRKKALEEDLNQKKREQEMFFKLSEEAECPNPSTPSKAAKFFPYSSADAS

[4] = biological target: T3, Interleukin-1 receptor-associated kinase 4 (Homo sapiens, UniProt Q9NWZ3)
T3 sequence (Q9NWZ3 whole entry): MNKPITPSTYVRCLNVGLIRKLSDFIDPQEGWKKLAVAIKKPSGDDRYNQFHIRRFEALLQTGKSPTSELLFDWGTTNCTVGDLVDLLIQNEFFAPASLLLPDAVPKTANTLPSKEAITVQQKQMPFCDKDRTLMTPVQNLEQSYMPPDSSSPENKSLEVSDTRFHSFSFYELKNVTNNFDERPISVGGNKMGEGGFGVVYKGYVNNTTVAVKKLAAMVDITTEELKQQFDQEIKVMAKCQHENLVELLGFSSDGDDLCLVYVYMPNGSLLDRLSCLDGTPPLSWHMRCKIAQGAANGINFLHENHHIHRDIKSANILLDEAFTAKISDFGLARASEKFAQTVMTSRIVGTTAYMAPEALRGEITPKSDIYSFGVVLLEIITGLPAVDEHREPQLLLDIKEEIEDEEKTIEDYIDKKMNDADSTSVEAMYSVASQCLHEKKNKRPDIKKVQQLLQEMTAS

[5] = biological target: T4, Serine/threonine-protein kinase Nek3 (Homo sapiens, UniProt P51956)
T4 sequence (P51956 whole entry): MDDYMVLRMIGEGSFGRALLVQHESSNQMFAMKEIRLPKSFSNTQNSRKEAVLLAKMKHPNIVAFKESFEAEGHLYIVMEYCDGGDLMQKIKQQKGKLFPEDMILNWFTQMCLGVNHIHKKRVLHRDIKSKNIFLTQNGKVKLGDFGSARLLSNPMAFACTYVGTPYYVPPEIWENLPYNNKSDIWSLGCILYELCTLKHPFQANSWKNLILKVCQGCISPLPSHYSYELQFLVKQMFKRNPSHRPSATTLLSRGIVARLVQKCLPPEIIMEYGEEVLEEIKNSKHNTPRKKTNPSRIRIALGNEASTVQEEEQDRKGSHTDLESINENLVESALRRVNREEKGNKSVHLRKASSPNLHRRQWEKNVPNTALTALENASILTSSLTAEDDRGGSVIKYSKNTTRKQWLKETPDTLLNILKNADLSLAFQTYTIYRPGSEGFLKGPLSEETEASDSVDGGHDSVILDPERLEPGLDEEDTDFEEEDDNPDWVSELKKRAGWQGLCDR

Scaffold protein ILK = biological target: T5, Scaffold protein ILK (Homo sapiens, UniProt Q13418)
T5 sequence (Q13418 whole entry): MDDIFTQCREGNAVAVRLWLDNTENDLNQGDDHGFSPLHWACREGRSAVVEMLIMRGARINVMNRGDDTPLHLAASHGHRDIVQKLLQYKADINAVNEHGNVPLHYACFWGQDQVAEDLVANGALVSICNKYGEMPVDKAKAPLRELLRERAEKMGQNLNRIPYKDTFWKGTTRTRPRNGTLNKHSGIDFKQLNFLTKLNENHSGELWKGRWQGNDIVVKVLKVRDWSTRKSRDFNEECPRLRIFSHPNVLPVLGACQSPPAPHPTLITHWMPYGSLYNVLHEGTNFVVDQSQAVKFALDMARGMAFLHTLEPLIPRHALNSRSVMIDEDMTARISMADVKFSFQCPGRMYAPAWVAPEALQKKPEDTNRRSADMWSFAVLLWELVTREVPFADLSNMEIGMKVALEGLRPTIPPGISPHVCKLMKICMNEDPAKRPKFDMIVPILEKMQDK

Sequence of Wee1-like protein kinase (P30291 whole entry): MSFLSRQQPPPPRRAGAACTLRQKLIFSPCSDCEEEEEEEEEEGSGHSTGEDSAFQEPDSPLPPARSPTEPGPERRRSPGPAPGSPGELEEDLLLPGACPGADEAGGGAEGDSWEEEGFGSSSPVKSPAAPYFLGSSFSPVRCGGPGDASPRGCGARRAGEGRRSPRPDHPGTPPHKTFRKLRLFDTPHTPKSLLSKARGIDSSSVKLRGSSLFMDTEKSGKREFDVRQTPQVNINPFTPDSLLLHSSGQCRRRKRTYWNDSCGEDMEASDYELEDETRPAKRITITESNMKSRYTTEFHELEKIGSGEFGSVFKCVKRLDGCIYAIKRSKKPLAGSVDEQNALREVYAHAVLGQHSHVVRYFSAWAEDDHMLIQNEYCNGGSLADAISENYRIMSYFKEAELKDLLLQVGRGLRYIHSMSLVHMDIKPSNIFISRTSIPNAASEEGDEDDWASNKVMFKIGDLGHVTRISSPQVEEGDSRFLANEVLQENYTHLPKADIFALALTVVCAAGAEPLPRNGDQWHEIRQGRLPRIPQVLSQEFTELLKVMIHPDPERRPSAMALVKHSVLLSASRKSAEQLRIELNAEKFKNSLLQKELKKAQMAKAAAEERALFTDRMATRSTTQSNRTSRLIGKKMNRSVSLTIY

| SMILES | Kd (Wee1-like protein kinase) | Kd (Pyridoxal kinase) | Kd [1] | Kd (Ephrin type-A receptor 4) | Kd [2] | Kd [3] | Kd [4] | Kd [5] | Kd (Scaffold protein ILK) |
| --- | --- | --- | --- | --- | --- | --- | --- | --- | --- |
| O=c1sn(-c2cccc3ccccc23)c(=O)n1Cc1ccccc1 [TIDEGLUSIB] | > 30 µM (inactive) | > 30 µM (inactive) | > 30 µM (inactive) | > 30 µM (inactive) | > 30 µM (inactive) | > 30 µM (inactive) | > 30 µM (inactive) | > 30 µM (inactive) |  |
| Cn1cc(-c2ccc3nnc(C(F)(F)c4ccc5ncccc5c4)n3n2)cn1 [JNJ-38877605] | > 30 µM (inactive) | > 30 µM (inactive) | > 30 µM (inactive) | > 30 µM (inactive) | > 30 µM (inactive) | > 30 µM (inactive) | > 30 µM (inactive) | > 30 µM (inactive) | > 30 µM (inactive) |
| Cn1ncc(Cl)c1-c1cc(C(=O)N[C@H](CN)Cc2cccc(F)c2)sc1Cl [AFURESERTIB] | > 30 µM (inactive) | > 30 µM (inactive) | > 30 µM (inactive) | > 30 µM (inactive) | > 30 µM (inactive) | > 30 µM (inactive) | > 30 µM (inactive) | > 30 µM (inactive) | > 30 µM (inactive) |
| CNS(=O)(=O)Nc1nccc(Cc2c(C)c3ccc(Oc4ncccn4)cc3oc2=O)c1F [AVUTOMETINIB] | > 30 µM (inactive) | > 30 µM (inactive) | > 30 µM (inactive) | > 30 µM (inactive) | > 30 µM (inactive) | > 30 µM (inactive) | > 30 µM (inactive) | > 30 µM (inactive) | > 30 µM (inactive) |
| CN(C)C(=O)c1cc2cnc(Nc3ccc(N4CCNCC4)cn3)nc2n1C1CCCC1 [RIBOCICLIB] | > 30 µM (inactive) | > 30 µM (inactive) | > 30 µM (inactive) | > 30 µM (inactive) | > 30 µM (inactive) | > 30 µM (inactive) | > 30 µM (inactive) | > 30 µM (inactive) | > 30 µM (inactive) |
| CCc1cnn2c(NCc3ccc[n+]([O-])c3)cc(N3CCCC[C@H]3CCO)nc12 [DINACICLIB] | > 30 µM (inactive) | > 30 µM (inactive) | > 30 µM (inactive) | > 30 µM (inactive) |  | > 30 µM (inactive) | > 30 µM (inactive) | > 30 µM (inactive) | > 30 µM (inactive) |
| C[C@@H](c1ccc2nccn2c1)n1nnc2ncc(-c3cnn(C)c3)nc21 [SAVOLITINIB] | > 30 µM (inactive) | > 30 µM (inactive) | > 30 µM (inactive) | > 30 µM (inactive) | > 30 µM (inactive) | > 30 µM (inactive) | > 30 µM (inactive) | > 30 µM (inactive) |  |
| C=CC(=O)N1CCC(Oc2cc3c(Nc4ccc(Cl)c(Cl)c4F)ncnc3cc2OC)CC1 [POZIOTINIB] | > 30 µM (inactive) | > 30 µM (inactive) |  | 7.06 µM (active) | > 30 µM (inactive) | > 30 µM (inactive) | > 30 µM (inactive) | > 30 µM (inactive) |  |
| Cc1cn(-c2cc(NC(=O)c3ccc(C)c(Nc4nccc(-c5cccnc5)n4)c3)cc(C(F)(F)F)c2)cn1 [NILOTINIB] |  | > 30 µM (inactive) | > 30 µM (inactive) |  |  |  |  |  | 0.02 µM |
| CN1N=C(N)c2cn([C@@H]3O[C@H](COP(=O)(O)O)[C@@H](O)[C@H]3O)c3ncnc1c23 [TRICIRIBINE PHOSPHATE] | > 30 µM (inactive) | > 30 µM (inactive) | > 30 µM (inactive) | > 30 µM (inactive) | > 30 µM (inactive) | > 30 µM (inactive) | > 30 µM (inactive) | > 30 µM (inactive) |  |
| Cc1cc(Nc2cc(N3CCN(C)CC3)nc(/C=C/c3ccccc3)n2)n[nH]1 [ENMD-2076] | > 30 µM (inactive) | > 30 µM (inactive) | > 30 µM (inactive) | > 30 µM (inactive) |  |  |  | > 30 µM (inactive) | > 30 µM (inactive) |
| OCCn1cc(-c2cnc3nnn(Cc4ccc5ncccc5c4)c3n2)cn1 [PF-04217903] | > 30 µM (inactive) | > 30 µM (inactive) | > 30 µM (inactive) | > 30 µM (inactive) |  | > 30 µM (inactive) | > 30 µM (inactive) | > 30 µM (inactive) | > 30 µM (inactive) |
| O=C(Nc1cccc(Cl)c1)Nc1ncc(CCNc2ncnc3ccsc23)s1 [SNS-314] | > 30 µM (inactive) | > 30 µM (inactive) | > 30 µM (inactive) | > 30 µM (inactive) |  | > 30 µM (inactive) |  | > 30 µM (inactive) | > 30 µM (inactive) |
| Cc1ccc(S(=O)(=O)Nc2nc3ccccc3nc2Nc2ccc3nsnc3c2)cc1 | > 30 µM (inactive) | > 30 µM (inactive) | > 30 µM (inactive) | > 30 µM (inactive) | > 30 µM (inactive) | > 30 µM (inactive) | > 30 µM (inactive) | > 30 µM (inactive) |  |
| Cc1nc(N)sc1-c1ccnc(Nc2ccc(N3CCOCC3)cc2)n1 [CYC-116] |  | > 30 µM (inactive) | > 30 µM (inactive) |  | > 30 µM (inactive) |  |  | 0.83 µM (active) | > 30 µM (inactive) |
| CCn1c(-c2nonc2N)nc2c(C#CC(C)(C)O)ncc(OC[C@H]3CCCNC3)c21 [GSK-690693] |  | > 30 µM (inactive) | > 30 µM (inactive) |  |  |  |  |  | > 30 µM (inactive) |
| C1=C/COCc2cc(ccc2OCCN2CCCC2)Nc2nccc(n2)-c2cccc(c2)COC/1 [PACRITINIB] | > 30 µM (inactive) | > 30 µM (inactive) | > 30 µM (inactive) | > 30 µM (inactive) | > 30 µM (inactive) |  | > 30 µM (inactive) | > 30 µM (inactive) |  |
| CN1CCN(c2ccc3nc(-c4c(N)c5c(F)cccc5[nH]c4=O)[nH]c3c2)CC1 [DOVITINIB] |  | > 30 µM (inactive) | > 30 µM (inactive) |  |  |  |  |  | > 30 µM (inactive) |
| Nc1nc(N)c2nc(-c3cccc(O)c3)c(-c3cccc(O)c3)nc2n1 [TG100-115] |  | 5.25 µM (active) | > 30 µM (inactive) |  |  |  |  |  |  |
